# Paper PMC9571594, “Development of Semisynthetic Apoptosis-Inducing Agents Based on Natural Phenolic Acids Scaffold: Design, Synthesis and In-Vitro Biological Evaluation” (Molecules, 2022)
# “And” between values parts separate entries of the source, which are not always exact repeats. Equal values may be shown once. Read-outs that look alike come from different tables or passages of the source.
# Tests used:
# HepG2 cells = test: MTT cell viability assay, HepG2; type: cell-based, human; details: Homo sapiens, HepG2; MTT, 48 h, average of triplicates; read-out: IC50 (μM) ± SD HepG2
# Protocol: (§1) MCF-7 cells (Human breast adenocarcinoma), HepG2 (human hepatocellular carcinoma), A549 (human lung adenocarcinoma), Caco-2 (colon carcinoma), PANC-1 (human pancreatic cancer), and Vero cells (derived from normal kidney cells) were supplied by (Holding Company for Biological Products and Vaccines VACSERA; Giza, Egypt). The cells were cultured in PRMI 1640 medium (Lonza, Switzerland) supplemented with 10% fetal bovine serum (Gibco), 1% penicillin and 1% streptomycin (Sigma Aldrich, Saint Louis, MO, USA) at 37 °C under an atmosphere of 5% CO2 and 95% air.
# (§2) The effect of parent compounds and their derivatives were assessed by (3-(4,5-dimethylthiazol-2-yl)-2,5diphenyl-tetrazolium bromide) MTT assay. […] After a merged sheet of cells developed, the growth media was decanted from the 96-well microtiter and refilled with different concentrations of compounds (µg/mL), and the plate was incubated at 37 °C for 48 h to minimize exposure to the dissolving agent (Supporting Information).
# (§3) MTT solution (BIO BASIC CANADA INC) was prepared [5 mg/mL in phosphate buffered saline (PBS)], added to each well and incubated for 4 h, then after removing the media, 200 μL of DMSO was added to each well to solubilize the formazan crystals and the optical density of the formazan product was measured at 560 nm using microplate reader (mindray, MR-96A). The results were calculated as the mean of the three independent experiments. […]
# (§4) Determination of sample cytotoxicity on cells (MTT protocol) […]
# (§5) well) and incubated at 37°C for 24 hours to develop a complete monolayer sheet.
# (§6) 2- Growth medium was decanted from 96 well micro titer plates after confluent sheet of cells were formed, cell monolayer was washed twice with wash media.
# (§7) 3- two-fold dilutions of tested sample was made in RPMI medium with 2% serum […]
# (§8) 4- 0.1 ml of each dilution was tested in different wells leaving 3 wells as control, receiving only maintenance medium.
# (§9) 5- Plate was incubated at 37°C and examined. Cells were checked for any physical signs of toxicity, e.g. partial or complete loss of the monolayer, rounding, shrinkage, […]
# (§10) 6- MTT solution was prepared (5mg/ml in PBS) (BIO BASIC CANADA INC).
# (§11) 8- 20ul MTT solution were added to each well. Place on a shaking table, 150rpm for 5 minutes, to thoroughly mix the MTT into the media.
# (§12) 10) Dump off the media. (dry plate on paper towels to remove residue if necessary. […] 9 ش - ايلعلا هبضهلا - مطقملا / ىسيئرلا لمعملا […]
# A549 cells = test: MTT cell viability assay, A549; type: cell-based, human
# Protocol: as §1, §2, §3, §4, §5, §6, §7, §8, §9, §10, §11, §12
# Caco-2 cancer cell line = test: MTT cell viability assay, Caco-2; type: cell-based
# Protocol: as §1, §2, §3, §4, §5, §6, §7, §8, §9, §10, §11, §12
# PANC-1 cells = test: MTT cell viability assay, PANC-1; type: cell-based, human
# Protocol: as §1, §2, §3, §4, §5, §6, §7, §8, §9, §10, §11, §12
# Caco-2 cells [1] = test: Cell-cycle analysis by flow cytometry; type: cell-based; details: Caco-2 cells; Pre-G1 = apoptotic population
# Protocol: The potential candidates with anti-tumor effect on the Caco-2 cell line along with a high SI were chosen for cell-cycle analysis. The cell-cycle distribution and cell death were analyzed using Annexin V-FITC/PI staining and flow cytometry (Table 4, Figure 4).
# In order to determine the percentage of viable, apoptotic and necrotic cells after treatment with our compounds, double-staining with fluorescein isothiocyanate (FITC) and PI was performed. Annexin V-FITC Apoptosis Detection Kit (BioVision, CA, USA) was used. Briefly, cultured Caco-2 were treated with the tested compounds or DMSO for 24h. Cells were then collected by centrifugation at 2000 rpm for 5 min, and the pellet was washed with PBS then centrifuged again at 2000 rpm for 5 min then resuspended in 500μL of the kit’s binding buffer before adding the Annexin V-FITC and PI. The cells were then incubated at room temperature in the dark for 5 min. […]
# Assay : Cell Cycle Analysis
# Kit used : ab139418_Propidium Iodide Flow Cytometry Kit/BD
# Assay samples :Cell culture
# Cpd. No. Cpd. No. Cpd. No. Cpd. No.
# Caco-2 cells [2] = test: Annexin V-FITC/PI apoptosis assay by flow cytometry; type: cell-based; design: key: % of cells; details: annexin-V FITC/PI staining, 24h
# Protocol: In order to determine the percentage of viable, apoptotic and necrotic cells after treatment with our compounds, double-staining with fluorescein isothiocyanate (FITC) and PI was performed. Annexin V-FITC Apoptosis Detection Kit (BioVision, CA, USA) was used. Briefly, cultured Caco-2 were treated with the tested compounds or DMSO for 24h. Cells were then collected by centrifugation at 2000 rpm for 5 min, and the pellet was washed with PBS then centrifuged again at 2000 rpm for 5 min then resuspended in 500μL of the kit’s binding buffer before adding the Annexin V-FITC and PI. The cells were then incubated at room temperature in the dark for 5 min. Annexin V-FITC binding was measured using FACS Calibur flow cytometer (BD biosciences, USA) (Ex = 488 nm, Em = 533 nm, FL1 filter for annexin and FL2 filter for PI).
smiles,measurement,setting,value
"COc1cc(/C=C/C(=O)O)ccc1O [Compound 2, Ferulic acid]",IC50,HepG2 cells,810 ± 2170 µM
same,Toxicity %,"A549 cells; A549, 15.625 ug/ml",0.8674%
same,Toxicity %,"A549 cells; A549, 31.25 ug/ml",1.115%
same,Toxicity %,"A549 cells; A549, 62.5 ug/ml",0.7435%
same,Toxicity %,"A549 cells; A549, 125 ug/ml",4.089%
same,Toxicity %,"A549 cells; A549, 250 ug/ml",59.11%
same,Toxicity %,"A549 cells; A549, 500 ug/ml",75.96%
same,IC50,"A549 cells; Homo sapiens, A549, MTT, 48 h, average of triplicates, read-out: IC50 (μM) ± SD A549",1740 µM
same,viability at 15.625 µg/mL,"A549 cells; Homo sapiens, A549, 15.625 ug/ml",99.1%
same,viability at 31.25 µg/mL,"A549 cells; Homo sapiens, A549, 31.25 ug/ml",98.9%
same,viability at 62.5 µg/mL,"A549 cells; Homo sapiens, A549, 62.5 ug/ml",99.3%
same,viability at 125 µg/mL,"A549 cells; Homo sapiens, A549, 125 ug/ml",95.9%
same,viability at 250 µg/mL,"A549 cells; Homo sapiens, A549, 250 ug/ml",40.9%
same,viability at 500 µg/mL,"A549 cells; Homo sapiens, A549, 500 ug/ml",24%
same,IC50,"A549 cells; Homo sapiens, A549, MTT report T-4-019-5, Conc. ug/ml, read-out: IC50",314 µg/mL
same,Toxicity %,"Caco-2 cancer cell line; Caco2, 15.625 ug/ml",0.2882%
same,Toxicity %,"Caco-2 cancer cell line; Caco2, 31.25 ug/ml",9.414%
same,Toxicity %,"Caco-2 cancer cell line; Caco2, 62.5 ug/ml",22.57%
same,Toxicity %,"Caco-2 cancer cell line; Caco2, 125 ug/ml",70.61%
same,Toxicity %,"Caco-2 cancer cell line; Caco2, 250 ug/ml",88.18%
same,Toxicity %,"Caco-2 cancer cell line; Caco2, 500 ug/ml",84.34%
same,viability at 15.625 µg/mL,"Caco-2 cancer cell line; Homo sapiens, Caco-2, Caco2, 15.625 ug/ml",99.7%
same,viability at 31.25 µg/mL,"Caco-2 cancer cell line; Homo sapiens, Caco-2, Caco2, 31.25 ug/ml",90.6%
same,viability at 62.5 µg/mL,"Caco-2 cancer cell line; Homo sapiens, Caco-2, Caco2, 62.5 ug/ml",77.4%
same,viability at 125 µg/mL,"Caco-2 cancer cell line; Homo sapiens, Caco-2, Caco2, 125 ug/ml",29.4%
same,viability at 250 µg/mL,"Caco-2 cancer cell line; Homo sapiens, Caco-2, Caco2, 250 ug/ml",11.8%
same,viability at 500 µg/mL,"Caco-2 cancer cell line; Homo sapiens, Caco-2, Caco2, 500 ug/ml",15.7%
same,IC50,"Caco-2 cancer cell line; Homo sapiens, Caco-2, Caco2, MTT report T-4-019-5, Conc. ug/ml, read-out: IC50",96.4 µg/mL
same,IC50,"Caco-2 cancer cell line; Homo sapiens, Caco-2, MTT, 48 h, average of triplicates, parent compounds and doxorubicin (Table 2), read-out: IC50 (μM) ± SD Caco-2",410 µM
same,viability at 15.625 µg/mL,"PANC-1 cells; Homo sapiens, PANC-1, Panc1, 15.625 ug/ml",100%
same,viability at 31.25 µg/mL,"PANC-1 cells; Homo sapiens, PANC-1, Panc1, 31.25 ug/ml",99.7%
same,viability at 62.5 µg/mL,"PANC-1 cells; Homo sapiens, PANC-1, Panc1, 62.5 ug/ml",100%
same,viability at 125 µg/mL,"PANC-1 cells; Homo sapiens, PANC-1, Panc1, 125 ug/ml",86.5%
same,viability at 250 µg/mL,"PANC-1 cells; Homo sapiens, PANC-1, Panc1, 250 ug/ml",24.9%
same,viability at 500 µg/mL,"PANC-1 cells; Homo sapiens, PANC-1, Panc1, 500 ug/ml",28.5%
same,IC50,"PANC-1 cells; Homo sapiens, PANC-1, Panc1, MTT report T-4-019-5, Conc. ug/ml, read-out: IC50",195 µg/mL
same,Toxicity %,"PANC-1 cells; Panc1, 15.625 ug/ml",0%
same,Toxicity %,"PANC-1 cells; Panc1, 31.25 ug/ml",0.2717%
same,Toxicity %,"PANC-1 cells; Panc1, 62.5 ug/ml",0%
same,Toxicity %,"PANC-1 cells; Panc1, 125 ug/ml",13.5%
same,Toxicity %,"PANC-1 cells; Panc1, 250 ug/ml",75.09%
same,Toxicity %,"PANC-1 cells; Panc1, 500 ug/ml",71.47%
same,%Pre-G1,Caco-2 cells [1],13.22% and 13.22 ± 0.63%
same,Apoptosis Total,Caco-2 cells [2],13.22
same,Early Apoptosis,Caco-2 cells [2],5.17
same,Late Apoptosis,Caco-2 cells [2],6.48
same,Necrosis,Caco-2 cells [2],1.57
